# From US12083113B2, “Use of neuronal nitric oxide synthase inhibitors for immunotherapy in melanoma patients” (Northwestern University, priority 2018, dated 2024)
# B1: IFN-γ: Interferon-gamma, purchased from Invitrogen (protein, UniProt P01579 24-161, looked up)
# Interferon gamma: QDPYVKEAENLKKYFNAGHSDVADNGTLFLGILKNWKEESDRKIMQSQIVSFYFKLFKNFKDDQSIQKSVETIKEDMNVKFFNSNKKKRDDFEKLTNYSVTDLNVQRKAIHELIQVMAELSPAAKTGKRKRSQMLFRG
# Legend:
# [1] = test system: human melanoma cell lines (A375, Sk-Mel-28, wm3211); test: Cytotoxicity by MTT colorimetric analysis in human melanoma cell lines; format: cell-based; details: read-out: Cytotoxicity (IC50 from 3 melanoma cell lines)
# Method: Table 1. […] All the NOS isozymes used were recombinant enzymes overexpressed in E. coli. Ki values are calculated directly using known literature methods and detailed in co-PI R. Silverman's published manuscripts (17, 18, 64, 85). Cytotoxic effects of nNOS inhibitors in human melanoma were detected by MTT colorimetric analysis (85). The IC50 values are the average of at least two human melanoma cell lines.
# [2] = test system: A375 human melanoma xenograft; test: A375 melanoma xenograft, HH044 20 mg/kg (Example 2)
# [3] = test system: PD-L1 in A375 melanoma cells; test: Cell surface PD-L1 expression by flow cytometry; format: cell-based, human; details: for MFI of PD-L1 staining obtained via flow cytometry: IFN-γ alone or with MAC-3-190 (3 μM), 72-hour treatment; for cell surface expression of PD-L1: interferon alone, three cell lines
# Method: FIG. 4. […] Three melanoma cell lines were treated with 250 units/mL of interferons for 48 hours. Whole cell lysates were collected and subjected to RPPA assay. […] Red, high expression; green, low expression. All the data points were normalized for protein loading and transformed to linear value. […] Cell surface expression of PD-L1 was determined by flow cytometry. Representative histograms out of two independent experimental replicates are shown. C) IFN-α or IFN-γ (100 Units/ml); D-E) IFN-α or IFN-γ (250 Units/ml).
# Expression levels of PD-L1 detected by Flow Cytometry.
# [4] = test system: PD-L1 in A375 cells; test: PD-L1 expression by immunofluorescence staining; format: cell-based, human; details: for extracellular expression of PD-L1: interferon alone, 250 Units/ml
# Method: FIG. 5. Expression of PD-L1 in metastatic melanoma A375 cells detected by immunofluorescence staining. […]. Cells were then fixed and permeabilized with 4% formaldehyde and methanol. Samples were blocked in blocking buffer containing 5% horse serum for 1 hour. The slides were then allowed to incubate in a 1:50 PD-L1 antibody dilution overnight at 4° C. and DAPI reagent for 1 hour. Representative images are shown stained with PD-L1 antibody (green) and DAPI (blue fluorescence). (Original magnifications, 100×). Representative images for 2 experimental replicates are shown.
# Expression levels of PD-L1 detected by Immunofluorescence. A375 cells were plated on coverslips and incubated with 250 units/mL of IFN-α or IFN-γ in the presence or absence of […] of nNOS inhibitors for 72 hours. After treatment, cells on coverslips were fixed with 4% formaldehyde/PBS for 15 minutes at room temperature, followed by incubation with ice-cold 100% methanol for 10 minutes at −20° C. Samples were then incubated in blocking buffer (1×PBS, 5% horse serum, 0.3% Triton X-100) for 60 minutes, then in a 1:50 PD-L1 antibody dilution in dilution buffer (1×PBS, 1% BSA, 0.3% Triton X-100) overnight at 4° C. Stained specimens were rinsed with PBS then cured in the dark with DAPI fluorescence staining reagent for 1 hour. Slides were visualized and recorded using the BZ-X700 microscope (Keyence, Itasca, IL).
# [5] = test system: Human A375 metastatic melanoma xenograft; test: A375 melanoma xenograft, IFN-γ with or without MAC-3-190; format: in vivo, nude mice; details: for PD-L1-positive staining in xenograft tumors (immunohistochemistry): 21-day treatment, IFN-γ 1000 units per mouse i.p. daily, with or without MAC-3-190 5 mg/kg/day
# Method: FIG. 6. […] Data was represented as mean±SD.
# FIG. 7. Expression of PD-L1 in xenograft tumor samples obtained from the subject is administered an inhibitor of NOS and further is administered study detected by immunohistochemistry staining. PD-L1 staining (brown) of specimens at 100× (A) and 20× (B) magnification. […] . PD-L1 (C) and CD8 (D) stained specimens captured at 2× magnification.
# In Vivo Xenograft Melanoma. […] .
# [6] = test system: A375 cells; test: Cytotoxicity in A375 cells; format: cell-based, human
# [7] = test system: Sk-mel-28 cells; test: Cytotoxicity in Sk-mel-28 cells; format: cell-based, human
# [8] = test system: nNOS expression in WM3211 cells; test: Western blot of nNOS expression in primary melanoma WM3211 cells; format: cell-based, human; details: IFN-γ persisted after 96 hours, IFN-α within 4 hours, recovered by 24 hours
# Method: (§1) FIG. 2. A-C) Effects of IFN-α and IFN-γ treatment on nNOS expression levels in human primary melanoma WM3211 cells (A-B) and metastatic melanoma A375 cells. C) Distinct effects of IFN-α and IFN-γ on nNOS expression of A375 metastatic melanoma cells. A375 cells were treated with 500 units/mL of IFN-α or IFN-γ for 48 hours and whole cell lysates were collected. Samples were subjected to Western blot analysis for nNOS. A control of the protein loading was performed by detecting actin. D) Intracellular nitric oxide levels detected by microplate reader using DAF-FM fluorescence probe after IFN-α or IFN-γ treatment for 24 hours. E) IFN-γ-inducible nNOS expression was abrogated in nNOS-depleted melanoma cells. A375 cells transfected with shRNA-nNOS were treated with IFN-γ for 24 hours, followed by Western blot analysis.
# Protein isolation and Western blotting. All samples were kept at 4° C. unless otherwise noted. […]
# Equal amounts of protein, as detected by Bradford assay, were loaded and resolved on 7.5% SDS-polyacrylamide gels, then transferred to Immobilon-P^SQ polyvinylidene difluoride (PVDF) membranes (ISEQ00010; Merck KGaA, Darmstadt, Germany). […] Labeled bands were detected using SuperSignal horseradish peroxidase chemiluminescence reagents (1859674; 1859675; Thermo Fisher Scientific, Waltham, MA) and images were captured and analyzed using the Bio-Rad ChemiDoc XRS^+ System.
# [9] = test system: STAT1; test: Western blot of STAT1 in A375 cells; format: cell-based, human; details: interferon alone
# Method: (§2) FIG. 3. […] A375 cells were treated with 100 units/mL and 250 units/mL of IFN-γ or IFN-α for 24 hours; whole cell lysates and nuclear extracts were used for Western blot analysis to detect STAT3 and pSTAT3 respectively. […] Protein isolation and Western blotting. All samples were kept at 4° C. unless otherwise noted.
# (§3) The membranes were blocked using 10% non-fat milk (NOS1, STAT1/2, Actin, Lamin A/C) or 5% bovine serum albumin (BSA; SH3057402; Fisher Scientific, Waltham, MA) (p-STAT1/3), then incubated with primary antibodies for 1 hour at room temperature or overnight at 4° C., followed by secondary antibodies for 1 hour at room temperature as recommended by the manufacturer. Blots were washed extensively with TBS-T after each antibody incubation.
# [10] = test system: WM115, Sk-mel-28 and A375; test: Reverse Phase Protein Array in three human melanoma cell lines; format: cell-based; details: 250 units/mL interferon; for PD-L1 expression level (RPPA): average of three cell lines
# Method: FIG. 4. A) Heat map of Reverse Phase Protein Array (RPPA) showing distinct effects of IFN-α and IFN-γ on protein expression levels in three human melanoma cell lines (WM115, Sk-mel-28 and A375). Three melanoma cell lines were treated with 250 units/mL of interferons for 48 hours. Whole cell lysates were collected and subjected to RPPA assay. […] Red, high expression; green, low expression. All the data points were normalized for protein loading and transformed to linear value. […] Average changes of three cell lines detected by RPPA were shown in the figure. *, p<0.05 in comparison to control and IFN-α. C-E) Induction of PD-L1 by IFN-γ was diminished by the co-treatment of nNOS inhibitors. […]. Cell surface expression of PD-L1 was determined by flow cytometry. Representative histograms out of two independent experimental replicates are shown. C) IFN-α or IFN-γ (100 Units/ml); D-E) IFN-α or IFN-γ (250 Units/ml).
# Reverse Phase Protein Array. Plated cells were treated with 250 units/mL of IFN-α or IFN-γ for […]. After washing with 1×PBS, lysis buffer (1% Triton X-100, 50 mM HEPES, pH 7.4, 150 mM NaCl, 1.5 mM MgCl2, 1 mM EGTA, 100 mM NaF, 10 mM Na pyrophosphate, 1 mM Na3VO4, 10% glycerol and 1% PIC) was added to the plates, followed by incubation on ice for 20 minutes with occasional shaking. Samples were then collected via scraping and spun down at 14,000 g^−1 for 10 minutes at 4° C. The protein concentration was then quantified by Bradford method and adjusted to 1.5 μg/μL with lysis buffer. Cell lysates were then mixed with 4×SDS sample buffer (40% glycerol, 8% SDS, 0.25M Tris-HCl, pH 6.8 with 10% BME). Miniscule amounts of serially diluted protein samples were then dotted on a nitrocellulose coated slide and probed with validated primary antibodies and a biotin-conjugated secondary antibody. The signals were amplified using Dako-Cytomation-Catalyzed system (Dako) and visualized by diaminobenzidine (DAB) colorimetric reaction. Dilution curves were fitted with Supercurve Fitting and the protein expressions normalized for protein loading.
# [11] = test system: intracellular NO in melanoma cells; test: Intracellular nitric oxide levels, DAF-FM fluorescence probe; format: cell-based, human; details: DAF-FM probe after interferon exposure
# Method: as §1
# Detection of intracellular nitric oxide levels. Cultured cells in a 96-well plate were treated with 100 units/mL of IFN-α or IFN-γ for 48 hours. Once the incubation period was complete, the media was removed and replaced with Hank's Balanced Salt Solution (HBSS). 1 μM of 4-Amino-5-methylamino-2′,7′-difluorofluorescein (DAF-FM) probe was added to each condition and fluorescence levels produced by DAF-FM were detected using a fluorescence microplate reader with excitation and emission wavelengths of 485 and 538 nm, respectively.
# [12] = test system: STAT3; test: Western blot of STAT3 and phospho-STAT3 in A375 cells; format: cell-based, human; details: A375 cells exposed to interferon, 24 hours
# Method: as §2
# Nuclear and cytosolic protein extraction is described elsewhere (84). Cells were collected via centrifugation and re-suspended in buffer A (10 mM HEPES, pH 7.9, 10 mM KCl, 0.150 mM MgCl2, 0.5 mM DTT, 0.2 mM PMSF) with 1% PIC and allowed to swell for 10 minutes. 10% NP-40 was added and vortexed to lyse the cells. […] Buffer D (20 mM HEPES, 20% glycerol, 50 mM KCl, 0.5 mM EDTA, 0.5 mM DTT, and 0.2 mM PMSF) was then added to dilute the nuclear sample.
# as §3
# [13] = test system: A375 metastatic melanoma cells; test: Matrigel invasion assay; format: cell-based, human; details: compared to control, p<0.05
# Method: (§4) FIG. 1. A) Effect of IFN-γ on melanoma invasion potential detected by matrigel invasion assay. The represented data were from A375 metastatic melanoma cells treated with IFN-γ. *, p<0.05 compared to control. B) Adhesion analysis. A375 melanoma cells were seeded on top of fibroblast monolayer and incubated with IFN-γ for 1 hour, followed by MTT assay. *, p<0.05 compared to control.
# [14] = test system: A375 melanoma cells; test: Adhesion of melanoma cells to fibroblast monolayer; format: cell-based, human; details: incubated 1 hour, MTT assay
# Method: as §4
molecule,measurement,setting,value
N=C(Nc1ccc(CCNCc2cccc(NC(=N)c3cccs3)c2)cc1)c1cccs1 [HH044],IC50,[1],5.27 ± 3.3 µM
same,"lung, liver, and kidney weights",[2]; 20 mg/kg/day for 21 days,no significant changes
same,body weight,"[2]; 20 mg/kg/day for 21 days, 23.9 g in control group",22.6 g
same,reduction in body weight,"[2]; 20 mg/kg/day, not statistically significant (p>0.05)",< 10%
CNCc1cccc(CCc2ccc3c(C)cc(N)nc3c2)c1 [MAC-3-190],MFI of PD-L1 staining obtained via flow cytometry,[3]; A375 cells,1.9 folds of control
same,"Induction of PD-L1 by IFN-γ, cell surface expression","[3]; A375 cells, co-treatment with nNOS inhibitor 3 μM, 72 hours",diminished
same,IFN-γ-inducible PD-L1 expression,"[4]; co-treatment with 3 μM, IFN-γ 250 Units/ml, 72 hours",significantly diminished
same,basal level of PD-L1,"[4]; treatment with inhibitor alone, compared to control",did not alter
same,PD-L1 expression in xenograft tumors,[5]; 10 mg/kg/day,significantly reduced
same,PD-L1-positive staining in xenograft tumors (immunohistochemistry),[5],> 15%
same,"induction in tumor volume by IFN-γ, end of study","[5]; co-treatment, 5 mg/kg subcutaneously injected daily, p<0.05 compared to IFN-γ treatment",effectively diminished
N.N.[Cl][Pt][Cl] [cisplatin],IC50,[6],4.2 µM
same,IC50,[7],14.3 µM
IFN-α,nNOS expression levels,[8],undetectable levels
same,expression of STAT1,[9],increase
same,cell surface expression of PD-L1,[3],reduced
same,extracellular expression of PD-L1,[4]; 72 hours,low basal expression
same,PD-L1 expression level (RPPA),[10],absent
same,intracellular NO levels,[11],significantly decreased
B1,nNOS expression levels,[8],markedly induced
same,Phospho-STAT3 levels,[12],1.9 folds of control
same,expression levels of STAT3,[12],1.6 folds of control
same,expression of STAT1,[9],higher induction
same,MFI of PD-L1 staining obtained via flow cytometry,[3]; A375 cells,3.3 folds of control
same,cell surface expression of PD-L1,[3],increased
same,extracellular expression of PD-L1,[4]; 72 hours,markedly induced
same,c-Myc and HIF-1α expression levels (RPPA),[10],Increased
same,PD-L1 expression level (RPPA),[10],1.8 fold of control
same,intracellular NO levels,[11],elevated
same,melanoma invasion potential,[13],significantly enhanced
same,adhesion capacity of melanoma cells to fibroblast cells,[14],significantly enhanced
same,PD-L1-positive staining in xenograft tumors (immunohistochemistry),[5],> 20%
same,tumor growth in vivo,"[5]; IFN-γ 1000 units/day, 21 days",significantly stimulated
